Measured values: patent publication EP4722219A1 (Gan & Lee Pharmaceuticals Co., Ltd., priority 2023, dated 2024)

What was measured:
Assay type in all cases: cell-based
[1] = system: T-47D cells; assay: Inhibition of cell proliferation in T-47D cells (CCK-8); conditions: Homo sapiens, T47D, 144 h, 6 days treatment, CCK-8 cell viability
Method in brief: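 Viability by CCK-8 after a 6-day, 37 °C/5% CO2 exposure of T-47D cells (3,000/well, RPMI-1640 + 10% FBS) to graded PROTAC concentrations. Inhibition rates gave the IC50.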

[2] = system: MCF-7 cells; assay: Inhibition of cell proliferation in MCF-7 cells (CCK-8); conditions: MCF-7 cell proliferation, 6 days treatment
Method in brief: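 IC50 from CCK-8 viability-based inhibition after 6-day treatment of MCF-7 cells (800 cells/well, 10% FBS DMEM, 37 °C, 5% CO2) with serially varied compound concentrations.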

[3] = target: T1, ERα (Homo sapiens, UniProt P03372); assay: ERα degradation in T-47D cells (Western blot); conditions: 4 hours
T1 sequence (P03372 1-595): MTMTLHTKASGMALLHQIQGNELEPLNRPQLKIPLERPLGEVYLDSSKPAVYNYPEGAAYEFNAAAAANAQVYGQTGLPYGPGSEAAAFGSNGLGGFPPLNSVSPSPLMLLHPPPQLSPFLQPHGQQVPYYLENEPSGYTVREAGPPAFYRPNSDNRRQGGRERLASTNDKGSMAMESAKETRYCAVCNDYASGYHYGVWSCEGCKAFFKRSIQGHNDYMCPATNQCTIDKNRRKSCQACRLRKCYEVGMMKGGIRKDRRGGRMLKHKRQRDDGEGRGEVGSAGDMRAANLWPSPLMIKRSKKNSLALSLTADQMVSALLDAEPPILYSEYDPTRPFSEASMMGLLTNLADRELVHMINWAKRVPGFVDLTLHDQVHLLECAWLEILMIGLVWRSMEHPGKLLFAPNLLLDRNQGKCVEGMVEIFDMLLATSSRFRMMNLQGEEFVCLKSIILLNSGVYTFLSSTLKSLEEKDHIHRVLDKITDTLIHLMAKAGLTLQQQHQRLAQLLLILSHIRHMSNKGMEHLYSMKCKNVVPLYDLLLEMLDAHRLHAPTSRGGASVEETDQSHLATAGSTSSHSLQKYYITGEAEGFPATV
Experimental: (§1) Western blotting: The total protein concentration in the collected cell lysate supernatant was determined using the BCA protein concentration assay kit (enhanced) (P0009, Beyotime). Based on the total protein concentration determined by BCA, the protein concentration was adjusted to 1 µg/µL using RIPA lysis buffer and 5× SDS-PAGE protein loading buffer (MB01015, GenScript). The protein was denatured in a 95°C water bath for 5 minutes. After denaturation, the condensed water on the tube wall was collected by centrifugation and used as the loading sample. 20µL of the loading sample (20 µg of total protein) was added to the sample well of a 12% precast gel (M00669, GenScript). Electrophoresis was performed at 100 V for 20 minutes, followed by switching to 150 V for 40 minutes. After electrophoresis, the proteins from the SDS-PAGE gel were transferred to a PVDF membrane at a constant voltage of 100 V for 60 minutes. After transfer, the PVDF membrane corresponding to the ERα protein and internal reference protein was cut and incubated in 1× QµickBlock blocking buffer (P0252, Beyotime) for 30 minutes at room temperature on a shaker. After blocking, the ERα primary antibody (1:1000, 8644S, CST) was added and incubated overnight at 4°C on a shaker. The PVDF membrane was washed three times with 1× TBST buffer for 5 minutes each. Rabbit IgG (H+L) secondary antibody (1:7500, SA5-35571, Invitrogen) was added and incubated for 1 hour at room temperature on a shaker. The membrane was then washed again three times with 1× TBST buffer for 5 minutes each. Finally, the membrane was imaged using a dual-color infrared laser imaging system (Odyssey DLx, LICOR). Protein maps were analyzed for grayscale value using Image Studio Lite software. The grayscale correction value for each sample was calculated using the formula: grayscale correction value = grayscale value of the target protein / grayscale value of the corresponding internal reference. Then the grayscale correction values of the compound group and the control group were compared to calculate the degradation rate of the compound. Table 4 Degradation rate of ERα by PROTAC compounds of the present invention and positive control in MCF-7 cells (%)
Test Example 5 Degradation of ERα by the PROTAC compounds disclosed in the present invention in T-47D cells
T-47D (ATCC) cells were cultured in PRMI-1640 medium (30-2001, ATCC) containing 10% FBS (10099141C, Gibco) at 37°C and 5% CO2 until they entered the logarithmic growth phase. T-47D cells were seeded at a density of 3×10^5 cells/well in a 6-well plate and incubated at 37°C, 5% CO2 for 24 hours. After cell attachment, 1 µL of compound dimethyl sulfoxide solution (final concentration 0.15-1000 nM) was added and incubated for another 4 hours at 37°C, 5% CO2 incubator. After 4 hours, the culture medium was discarded, and each well was washed once with 1 mL of pre-chilled 1× DPBS. The cells were then lysed with 50 µL of RIPA lysis buffer (P0013B, Beyotime) and 1× protease inhibitor cocktail (P1005, Beyotime). After incubation on ice for 20 minutes, the cells were centrifuged at 14,000 g at 4°C for 30 minutes. The supernatant was carefully collected and analyzed for ERα protein levels by immunoblotting. Table 5 Degradation rate of ERα by PROTAC compounds of the present invention and positive control sample in T-47D cells (%)

[4] = target: T1, ERα; assay: ERα degradation in MCF-7 cells (Western blot); design: host or cells: MCF-7; conditions: 4 hours
Experimental: Test Example 4 Effect of PROTAC Compounds Disclosed in the Present Invention on ERα Degradation in MCF-7 Cells
MCF-7 (ATCC) cells were cultured in DMEM medium (11995-065, Gibco) containing 10% FBS (10099141C, Gibco) at 37°C and 5% CO2 until they entered the logarithmic growth phase. MCF-7 cells were plated at a density of 3×10^5 cells/well in a 6-well plate and incubated at 37°C, 5% CO2 for 24 hours. After cell attachment, 1µL of compound in dimethyl sulfoxide (final concentration 0.15-1000nM) was added and incubated for another 4 hours at 37°C, 5% CO2 incubator. After 4 hours, the culture medium was discarded, and each well was washed once with 1 mL of pre-chilled 1× DPBS. The cells were then lysed with 50 µL of RIPA lysis buffer (P0013B, Beyotime) and 1× protease inhibitor cocktail (P1005, Beyotime). After incubation on ice for 20 minutes, the cells were centrifuged at 14,000 g at 4°C for 30 minutes. The supernatant was carefully collected and analyzed for ERα protein levels by immunoblotting.
as §1

Row | SMILES | IC50 [1] | IC50 ([2]; Homo sapiens, MCF7, 144 h) | Degradation rate of ERα in T-47D cells (%) ([3]; 1nM) | Degradation rate of ERα in T-47D cells (%) ([3]; 10nM) | Degradation rate of ERα in MCF-7 cells (%) ([4]; 1nM) | Degradation rate of ERα in MCF-7 cells (%) ([4]; 10nM) | IC50 [2]
1 | Cn1c(=O)n(C2CCC(=O)NC2=O)c2cc3c(cc21)OC1(CC3)CCN(C[C@H]2CC[C@@H](OC3CCN(c4ccc([C@@H]5c6ccc(O)cc6CC[C@@H]5c5ccccc5)cc4)CC3)CC2)CC1 (stereo partly drawn) [ER-P-65, 3-(1'-(((1S,4S)-4-((1-(4-((1R,2S)-6-hydroxy-2-phenyl-1,2,3,4-tetrahydronaphthalen-1-yl)phenyl)piperidin-4-yl)oxy)cyclohexyl)methyl)-3-methyl-2-oxo-2,3,7,8-tetrahydro-1H-spiro[benzopyrano[6,7-d]imidazole-6,4'-piperidin]-1-yl)piperidine-2,6-dione] | 7.34 nM | 261 nM | 20% | 77% | 21% | 62% | 
2 | O=C1CCC(N2Cc3c(ccc4c3OCC43CCC4(CCN(C5CCN(C(=O)C6CCN(c7ccc([C@@H]8c9ccc(O)cc9CC[C@@H]8c8ccccc8)cc7)CC6)CC5)CC4)CC3)C2=O)C(=O)N1 (stereo partly drawn) [ER-P-5] | 0.96 nM | < 0.256 nM | 39% | 79% | 25% | 57% | 
3 | O=C1CC[C@H](NC(=O)c2ccc3c(c2)OCC[C@H]2CN(CC4CCC(OC5CCN(c6ccc([C@@H]7c8ccc(O)cc8CC[C@@H]7c7ccccc7)cc6)CC5)CC4)CCN32)C(=O)N1 (stereo partly drawn) [ER-P-44, (S)-N-((S)-2,6-dioxopiperidin-3-yl)-3-((4-((1-(4-((1R,2S)-6-hydroxy-2-phenyl-1,2,3,4-tetrahydronaphthalen-1-yl)phenyl)piperidin-4-yl)oxy)cyclohexyl)methyl)-2,3,4,4a,5,6-hexahydro-1H-benzo[b]pyrazino[1,2-d][1,4]oxazepine-9-carboxamide] | 1.26 nM |  | -29% | 30% | 10% | 39% | 805 nM
4 | O=C1CCC(N2Cc3c(ccc4c3OCC43CCC4(CCN(C5CCC6(CC5)CN(c5ccc([C@@H]7c8ccc(O)cc8CC[C@@H]7c7ccccc7)cc5)C6)CC4)CC3)C2=O)C(=O)N1 (stereo partly drawn) [ER-P-2] | 2.02 nM | 62.6 nM | 26% | 54% | 7% | 48% | 
5 | CN(c1ccc2c(c1)OCC21CCN(C[C@H]2CC[C@@H](OC3CCN(c4ccc([C@@H]5c6ccc(O)cc6CC[C@@H]5c5ccccc5)cc4)CC3)CC2)CC1)C1CCC(=O)NC1=O (stereo partly drawn) [ER-P-32, 3-((1'-(((1S,4s)-4-((1-(4-((1R,2S)-6-hydroxy-2-phenyl-1,2,3,4-tetrahydronaphthalen-1-yl)phenyl)piperidin-4-yl)oxy)cyclohexyl)methyl)-2H-spiro[benzofuran-3,4'-piperidin]-6-yl)(methyl)amino)piperidine-2,6-dione] | 19.5 nM | 705 nM | -2% | 15% | 12% | 13% | 
6 | Cn1c(=O)n(C2CCC(=O)NC2=O)c2cc3c(cc21)C1(CCN(C2CCC4(CC2)CCN(c2ccc([C@@H]5c6ccc(O)cc6CC[C@@H]5c5ccccc5)cc2)CC4)CC1)CO3 (stereo partly drawn) [ER-P-60] | 1.41 nM | 0.362 nM | 21% | 51% | 14% | 36% | 
7 | Cn1c(=O)n(C2CCC(=O)NC2=O)c2ccc3c(c21)OCC31CCN(C2CCN(C(=O)C3CCN(c4ccc([C@@H]5c6ccc(O)cc6CC[C@@H]5c5ccccc5)cc4)CC3)CC2)CC1 (stereo partly drawn) [ER-P-13, 3-(1'-(1-(1-(4-((1R,2S)-6-hydroxy-2-phenyl-1,2,3,4-tetrahydronaphthalen-1-yl)phenyl)piperidine-4-carbonyl)piperidin-4-yl)-1-methyl-2-oxo-1,2-dihydro-3H,7H-spiro[benzofuro[6,7-d]imidazole-6,4'-piperidin]-3-yl)piperidine-2,6-dione] | 0.47 nM | 18.9 nM | 79% | 74% | 72% | 85% | 
8 | Cn1c(=O)n(C2CCC(=O)NC2=O)c2cc3c(cc21)C1(CCN(CC2CCN(c4ccc([C@@H]5c6ccc(O)cc6CC[C@@H]5c5ccccc5)cc4)CC2)CC1)CO3 (stereo partly drawn) [ER-P-24, 3-(1'-((1-(4-((1R,2S)-6-hydroxy-2-phenyl-1,2,3,4-tetrahydronaphthalen-1-yl)phenyl)piperidin-4-yl)methyl)-1-methyl-2-oxo-1,2-dihydro-3H,6H-spiro[benzofuro[5,6-d]imidazole-7,4'-piperidin]-3-yl)piperidine-2,6-dione] | 19.2 nM | 1070 nM | -16% | -49% | -68% | -39% | 
